What all share (format): functional
Assay [1] concerns AGS. As to the kind of experiment: Cytotoxicity against human TRAIL-resistant AGS cells at 27.1 nM after 24 hrs by FMCA in presence of TRAIL.
Assay [2] concerns AGS. Kind of assay: Cytotoxicity against human TRAIL-resistant AGS cells after 24 hrs by FMCA in presence of TRAIL.
Assay [3] relates to AGS. Kind of assay: Cytotoxicity against human TRAIL-resistant AGS cells at 29.2 nM after 24 hrs by FMCA in presence of TRAIL.
For assay [4], the system named is AGS. As to the kind of experiment: Cytotoxicity against human TRAIL-resistant AGS cells at 29.2 nM after 24 hrs by FMCA in absence of TRAIL.
The test system of assay [5] is AGS. Kind of assay: Induction of DR4 mRNA expression in human TRAIL-resistant AGS cells at 500 nM by reat-time RT-PCR analysis relative to GADPH.
Assay [6] has as its system AGS. Kind of assay: Induction of DR5 mRNA expression in human TRAIL-resistant AGS cells at 250 nM by reat-time RT-PCR analysis relative to GADPH.
For assay [7], the system named is AGS. Kind of assay: Cytotoxicity against human TRAIL-resistant AGS cells at 125 nM after 24 hrs by FMCA in absence of TRAIL.
Assay [8] concerns AGS. As to the kind of experiment: Induction of DR4 mRNA expression in human TRAIL-resistant AGS cells at 125 nM by reat-time RT-PCR analysis relative to GADPH.
Assay [9] concerns AGS. Kind of assay: Induction of DR5 mRNA expression in human TRAIL-resistant AGS cells at 500 nM by reat-time RT-PCR analysis relative to GADPH.
Assay [10] deals with AGS. Kind of assay: Cytotoxicity against human TRAIL-resistant AGS cells at 125 nM after 24 hrs by FMCA in presence of TRAIL.
The test system of assay [11] is AGS. As to the kind of experiment: Induction of DR4 mRNA expression in human TRAIL-resistant AGS cells at 250 nM by reat-time RT-PCR analysis relative to GADPH.
Assay [12] deals with AGS. As to the kind of experiment: Induction of DR5 mRNA expression in human TRAIL-resistant AGS cells at 125 nM by reat-time RT-PCR analysis relative to GADPH.

Active and inactive are the calls of the source. The rule behind the calls is not given here.

For `CC(=O)O[C@H]1[C@H](O[C@@H]2[C@@H](O)[C@H](C)O[C@@H](O[C@H]3[C@H](O[C@H]4CC[C@@]5(C)[C@@H](CC[C@]6(C)[C@@H]5CC=C5[C@@H]7CC(C)(C)CCC7(C(=O)O)CC[C@]56C)[C@]4(C)CO)OC[C@H](O)[C@@H]3O)[C@@H]2O)OC[C@@H](O)[C@@H]1O` (stereo partly specified), the Activity with AGS [1] is 45%. Moreover, in the assay on AGS [2], the outcome was Active.

For the molecule `CC(=O)O[C@@H]1CO[C@@H](O[C@@H]2[C@@H](O)[C@H](C)O[C@@H](O[C@H]3[C@H](O[C@H]4CC[C@@]5(C)[C@@H](CC[C@]6(C)[C@@H]5CC=C5[C@@H]7CC(C)(C)CCC7(C(=O)O)CC[C@]56C)[C@]4(C)CO)OC[C@H](O)[C@@H]3O)[C@@H]2O)[C@H](O)[C@H]1O` (stereo partly specified), in the assay on AGS [2], the outcome was Active.

With `CC(=O)O[C@@H]1[C@@H](O)[C@H](O[C@@H]2[C@@H](O)[C@H](C)O[C@@H](O[C@H]3[C@H](O[C@H]4CC[C@@]5(C)[C@@H](CC[C@]6(C)[C@@H]5CC=C5[C@@H]7CC(C)(C)CCC7(C(=O)O)CC[C@]56C)[C@]4(C)CO)OC[C@H](O)[C@@H]3O)[C@@H]2O)OC[C@H]1OC(C)=O` (stereo partly specified), in the assay with AGS [2], the result was Active.

Regarding `CC(=O)O[C@H]1[C@H](O[C@@H]2[C@@H](O)[C@H](C)O[C@@H](O[C@H]3[C@H](O[C@H]4CC[C@@]5(C)[C@@H](CC[C@]6(C)[C@@H]5CC=C5[C@@H]7CC(C)(C)CCC7(C(=O)O)CC[C@]56C)[C@]4(C)CO)OC[C@H](O)[C@@H]3O)[C@@H]2O)OC[C@@H](OC(C)=O)[C@@H]1O` (stereo partly specified), the result in the assay on AGS [2] was Active.

Regarding `O=c1cc(-c2ccc(O)c(O)c2)oc2cc(O)cc(O)c12` [LUTEOLIN], the Activity in the assay on AGS [2] was found to be 70%.

As for `CO[C@H]1[C@H](O)[C@H](O[C@H]2CC[C@@]3(C)[C@H](CC[C@@H]4[C@@H]3CC[C@]3(C)[C@@H](C5=CC(=O)OC5)CC[C@]43O)C2)O[C@@H](C)[C@@H]1O` [NERIIFOLIN], the results for the Activity with AGS [3] and in the assay with AGS [4] were 36% and 79%, respectively.

For `CO[C@H]1[C@H](O)[C@H](O[C@H]2CC[C@@]3(C)[C@@H](CC[C@@H]4[C@@H]3CC[C@]3(C)[C@@H](C5=CC(=O)OC5)CC[C@]43O)C2)O[C@@H](C)[C@@H]1O` [THEVEFOLIN], the “fold change (FC)” value is 3.6 in the assay on AGS [5]; 1.6 with AGS [6]; 1.8 in the assay with AGS [8]; 1.8 in the assay on AGS [9]; 3.3 with AGS [11]; 1.2 in the assay with AGS [12]. In addition, the Activity in the assay with AGS [7] is on record as 65%; in the assay on AGS [10], 46%.

The values are drawn from ChEMBL document CHEMBL1153786, “Cardenolide glycosides of Thevetia peruviana and triterpenoid saponins of Sapindus emarginatus as TRAIL resistance-overcoming compounds” (2009).
